Test results reported in patent US7947854B2, “Bis-cationic compounds and use thereof” (The University of Sydney, priority 2003, dated 2011).
Values after ≈ are worked out from the molar mass of the structure shown.

Test system: MRSA (methicillin resistant S. aureus)
Test: In vitro antibacterial activity, NCCLS M7-A6
Type: cell-based
Conditions: Staphylococcus aureus, read-out: MIC MRSA (methicillin resistant S. aureus)
Procedure: Two bis-cationic compounds were tested for antibacterial activity. The assay used was that published by the National Committee for Clinical Laboratory Standards. 2003. Methods for Dilution Antimicrobial Susceptibility Tests for Bacteria That Grow Aerobically: Approved Standard—Sixth Edition. NCCLS document M7-A6. Villanova, Pa., USA.

## CN[C@H](CC(C)C)C(=O)N[C@H]1C(=O)N[C@@H](CC(N)=O)C(=O)N[C@H]2C(=O)N[C@H]3C(=O)N[C@H](C(=O)N[C@H](C(=O)O)c4cc(O)cc(O)c4-c4cc3ccc4O)[C@H](O)c3ccc(c(Cl)c3)Oc3cc2cc(c3O[C@@H]2O[C@H](CO)[C@@H](O)[C@H](O)[C@H]2O[C@H]2C[C@](C)(N)[C@H](O)[C@H](C)O2)Oc2ccc(cc2Cl)[C@H]1O [vancomycin, reference compound]
  MIC: 1 µg/mL (≈ 0.69 µM)
